How the values were obtained:
Type in all cases: cell-based
PPAR γ = biological target: T1, PPAR γ (Homo sapiens, UniProt P37231); assay: GAL4-hPPAR γ (LBD) luciferase reporter transactivation in CV-1 cells; conditions: test compound 10^−6 M, control Rosiglitazone 10^−5 M = 100%
T1 construct: A receptor expression plasmid (pSG5-GAL4-hPPAR α or γ or δ (LBD)); expressed in transfected cells; host or cells: CV-1 cells (ATCC)
T1 sequence (P37231 238-503 limits assumed): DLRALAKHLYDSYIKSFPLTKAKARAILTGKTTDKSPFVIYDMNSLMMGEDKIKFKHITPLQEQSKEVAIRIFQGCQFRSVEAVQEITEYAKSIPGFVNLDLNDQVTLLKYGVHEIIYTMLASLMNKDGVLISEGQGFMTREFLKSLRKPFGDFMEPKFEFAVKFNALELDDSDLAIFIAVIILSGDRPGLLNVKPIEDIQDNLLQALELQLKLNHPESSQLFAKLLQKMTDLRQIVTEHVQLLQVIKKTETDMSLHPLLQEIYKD
Experimental: (§1) A receptor expression plasmid (pSG5-GAL4-hPPAR α or γ or δ (LBD)), a luciferase expression plasmid (pUC8-MH100x-4-TK-Luc) and β-galactosidase expression plasmid (pCMX-β-GAL) (Kliewer, S. A., et. al., (1992) Nature, 358:771-774) are transfected into CV-1 cells (ATCC). After gene transfer utilizing a lipofection reagent DMRIE-C or Lipofectamin 2000 (Invitrogen), it is incubated for 42 hours in the presence of the test compound. Then, the luciferase activity and β-GAL activity are measured on the soluble cells. The luciferase activity is calibrated by the β-GAL activity. A relative ligand activity is calculated for each of the PPAR α, γ and δ under the following conditions: a relative activity of PPAR α is calculated in consideration of a luciferase activity (assigned to 100%) of cells treated with the compound GW-590735 (PPARα-selective agonist); a relative activity of PPAR γ is calculated in consideration of a luciferase activity (assigned to 100%) cells treated with Rosiglitazone; and a relative activity of PPAR δ is calculated in consideration of a luciferase activity (assigned to 100%) of cells treated with GW-501516. See the below-described Example 4.
(§2) The PPARδ activating effects of test compounds (compounds of Examples) were measured by the following method: […]
(§3) After gene transfer utilizing a lipofection reagent DMRIE-C or Lipofectamin 2000 (Invitrogen), it is incubated for approx. 40 hours in the presence of the test compound. Then, the luciferase activity and β-GAL activity are measured on the soluble cells. […] A relative ligand activity is calculated for each of the PPAR α, γ and δ under the following conditions: a relative activity of PPAR α is calculated in consideration of a luciferase activity (assigned to 100%) of cells treated with GW-590735 (PPARα-selective agonist); a relative activity of […] is calculated in consideration of a luciferase activity (assigned to 100%) cells treated with Rosiglitazone; and a relative activity of PPARδ is calculated in consideration of a luciferase activity (assigned to 100%) of cells treated with GW-501516.

PPAR α = biological target: T2, PPAR α (Homo sapiens, UniProt Q07869); assay: GAL4-hPPAR α (LBD) luciferase reporter transactivation in CV-1 cells; conditions: test compound 10^−6 M, control GW-590735 10^−6 M = 100%
T2 construct: A receptor expression plasmid (pSG5-GAL4-hPPAR α or γ or δ (LBD)); expressed in transfected cells; host or cells: CV-1 cells (ATCC)
T2 sequence (Q07869 239-466 limits assumed): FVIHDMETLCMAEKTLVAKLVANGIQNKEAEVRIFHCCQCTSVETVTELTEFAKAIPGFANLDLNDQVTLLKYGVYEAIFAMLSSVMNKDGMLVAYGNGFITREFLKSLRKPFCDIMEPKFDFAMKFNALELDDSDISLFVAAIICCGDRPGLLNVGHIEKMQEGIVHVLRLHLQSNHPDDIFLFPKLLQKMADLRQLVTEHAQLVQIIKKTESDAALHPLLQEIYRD
Experimental: as §1, §2, §3

PPAR δ = biological target: T3, PPAR δ (Homo sapiens, UniProt Q03181); assay: GAL4-hPPAR δ (LBD) luciferase reporter transactivation in CV-1 cells; conditions: test compound 10^−6 M, control GW-501516 10^−7 M = 100%
T3 construct: A receptor expression plasmid (pSG5-GAL4-hPPAR α or γ or δ (LBD)); expressed in transfected cells; host or cells: CV-1 cells (ATCC)
T3 sequence (Q03181 211-439 limits assumed): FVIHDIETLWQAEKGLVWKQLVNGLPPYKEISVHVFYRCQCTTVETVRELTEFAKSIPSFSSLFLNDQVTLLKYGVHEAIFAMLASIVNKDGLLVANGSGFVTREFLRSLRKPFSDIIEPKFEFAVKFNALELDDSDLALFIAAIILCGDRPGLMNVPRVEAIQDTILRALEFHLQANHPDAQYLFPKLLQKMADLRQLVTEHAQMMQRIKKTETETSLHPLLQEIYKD
Experimental: as §1, §2, §3

SMILES	PPAR γ activity: relative value (%) of the test compound to 100% of the control compound (PPAR γ) [%]	PPAR α activity: relative value (%) of the test compound to 100% of the control compound (PPAR α) [%]	PPAR δ activity: relative value (%) of the test compound to 100% of the control compound (PPAR δ) [%]
Cc1cc2c(CCc3cc(-c4ccc(C(F)(F)F)cc4)nn3C(C)C)noc2cc1OCC(=O)O [Example 2, 3-[2-[1-Isopropyl-3-(4-trifluoromethylphenyl)-1H-pyrazol-5-yl]ethyl]-5-methylbenzisoxazol-6-yloxyacetic acid]	13.4	103.0	94.4
Cc1cc2c(CCc3cn(-c4ccc(C(F)(F)F)cc4)nc3C(C)C)noc2cc1OC(C)(C)C(=O)O [Example 3, 2-[3-[2-[3-Isopropyl-1-(4-trifluoromethylphenyl)-1H-pyrazol-4-yl]ethyl]-5-methylbenzisoxazol-6-yloxy]-2-methylpropionic acid]	0.3	0.2	87.8
Cc1cc2c(CCc3cc(-c4ccc(C(F)(F)F)cc4)nn3C(C)C)noc2cc1OC(C)(C)C(=O)O [Example 1, 2-[3-[2-[1-Isopropyl-3-(4-trifluoromethylphenyl)-1H-pyrazol-5-yl]ethyl]-5-methylbenzisoxazol-6-yloxy]-2-methylpropionic acid]	5.4	62.7	84.7

Source: patent US20100029949A1, “Activator for Peroxisome Proliferator Activated Receptor” (priority 2005, published 2010)
